Assay results published in PubChem BioAssay AID1083212 (The Scripps Research Institute Molecular Screening Center, 2014).
Calls of active or inactive are those of the source.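 How the source made its calls: active means IC50 of 10 µM or lower; inactive means IC50 above 10 µM.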

These molecules were tested against Tyrosyl-DNA phosphodiesterase 2 (Homo sapiens) (UniProt O95551) (assay: potency against TDP2 phosphodiesterase activity – biochemical, epi absorbance, IC50, late-stage follow-up (AID 1083212)). Settings: recombinant TDP2, T5PNP hydrolysis, p-nitrophenol absorbance 415 nm.
Chain of Tyrosyl-DNA phosphodiesterase 2 (Homo sapiens) (O95551 whole entry, looked up): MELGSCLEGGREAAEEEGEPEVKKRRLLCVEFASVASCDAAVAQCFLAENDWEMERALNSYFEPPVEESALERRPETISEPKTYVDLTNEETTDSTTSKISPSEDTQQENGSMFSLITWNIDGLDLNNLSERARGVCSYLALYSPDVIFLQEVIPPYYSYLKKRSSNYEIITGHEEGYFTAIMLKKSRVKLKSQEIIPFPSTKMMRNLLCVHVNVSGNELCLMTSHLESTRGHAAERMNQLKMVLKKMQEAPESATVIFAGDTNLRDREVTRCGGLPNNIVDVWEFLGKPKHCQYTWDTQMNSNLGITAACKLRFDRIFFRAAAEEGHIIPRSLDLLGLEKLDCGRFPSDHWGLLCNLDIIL

Row | Structure (SMILES) | IC50
1 | Cc1ccc(NC2=C/C(=N\S(=O)(=O)c3cccs3)c3ccccc3C2=O)cc1 | > 128 µM (inactive)
2 | O=C(O)c1ccc(NC2=C/C(=N/S(=O)(=O)c3cccs3)c3ccccc3C2=O)cc1 | 1.32 µM
3 | COc1ccc(CNC(=S)Nc2ccc(S(N)(=O)=O)cc2)cc1 | > 128 µM (inactive)
